Assay: Stability of oxysterols in NPC plasma samples processed with/without BHT at 4° C. or room temperature
Format: physicochemical, human
Method: Treatments include: NPC plasma samples treated with BHT (“BHT”), no BHT (“No BHT”), at 4° C. with BHT (“4 BHT”), at 4° C. without BHT (“4 No BHT”), at room temperature (20-21° C.) with BHT (“RT BHT”), and at room temperature (20-21° C.) without BHT (“RT No BHT”).
Treatments include: NPC plasma samples treated overnight with BHT (“BHT”), no BHT (“No BHT”), at 4° C. with BHT (“4 BHT”), at 4° C. without BHT (“4 No BHT”), at room temperature (20-21° C.) with BHT (“RT BHT”), and at room temperature (20-21° C.) without BHT (“RT No BHT”).
The stability of the oxysterols triol and 7-keto prepared in accordance with the methods of the present disclosure are shown in FIGS. 7A and 7B. Patient's having confirmed NPC disease were used to obtain plasma biological samples. The plasma biological samples were processed as described in Examples 1-4 except that some of the samples were not treated with butylated hydroxytoluene (BHT, a known antioxidant that prevents further oxidation of cholesterol), and either treated at room temperature or at 4° C. with and without BHT.

Row | SMILES | Stability in plasma samples: ability to isolate and quantify
1 | CC(C)CCC[C@@H](C)[C@H]1CC[C@H]2[C@@H]3C[C@@H](O)[C@@]4(O)C[C@@H](O)CC[C@]4(C)[C@H]3CC[C@]12C [triol, cholestane-3β,5α,6β-triol] | without adversely affecting
2 | CC(C)CCC[C@@H](C)[C@H]1CC[C@H]2[C@@H]3C(=O)C=C4C[C@@H](O)CC[C@]4(C)[C@H]3CC[C@]12C [7-keto, 7-ketocholesterol] | without adversely affecting

— patent US9012216B2, “Methods of determining efficacy of cyclodextrin therapy” (Washington University, priority 2008, dated 2015)
